# Assay results: US9463190B2, “Methods of treating disease-induced ataxia and non-ataxic imbalance” (UNIVERSITY OF SOUTH FLORIDA, priority 2008, dated 2016)
# Key:
# ataxia and imbalance = conditions: case series and small controlled trials; cited from earlier work
# [1] = system: cerebellar symptoms of SCA14; experiment: Case report: person with SCA14 taking varenicline (Example 2, second patient); format: in vivo, human; conditions: for effect of prior medications on cerebellar symptoms: SCA14 patient, before varenicline; for total SARA score: blinded rating
# Experimental: The second patient was a person who presented to an academic movement disorders center for neurologic evaluation. […] They had never smoked or used drugs or alcohol and had no allergies. Their medical history was significant for hypertension, which was treated with 325 mg of valsartan (Diovan). Prior medications to treat their cerebellar symptoms included levodopa/carbidopa (Sinemet), lorazepam (Ativan), clonazapem (Klonopin), and zolpidem (Ambien), to no avail.
# On evaluation, the patient's vital signs and physical examination were normal. Their neurologic examination included a Mini-Mental Status Examination of 30/30, mild dysarthria, mild postural and intention tremor, and moderate dysmetria in all extremities. Their gait consisted of moderate to severe ataxia, and they required the constant use of a walker or the support of a cane to ambulate. The patient could tandem walk only with support. Increased tone and hyperreflexia were present in their lower extremities, with occasional myoclonus of their right leg.
# The patient was started on 0.5 mg of varenicline (Chantix®) once a day, titrating to 1 mg twice daily after 1 week with the understanding that this was being used as an off-label medication. […] The patient returned to the academic movement disorders center 3 weeks after starting varenicline. […] The patient was scored by a blinded movement disorders expert using the SARA. The patient's total SARA score before taking 1 mg of varenicline twice daily was 22, whereas the score 3 weeks after starting varenicline was 8. The patient remained on varenicline for 8 weeks with continued efficacy but discontinued it owing to financial considerations.
# [2] = system: cerebellar symptoms of spinocerebellar ataxia (SCA) and Fragile-X-Associated Tremor Ataxia Syndrome (FXTAS); experiment: Open-label varenicline in ataxic patients; SARA and CGI, blinded video assessment; format: in vivo, human
# Experimental: DESIGN/METHODS: Seven patients from an academic movement disorders center with spinocerebellar ataxia (n=6) and […]=1), were treated with open-label varenicline 1 mg twice daily. Two patients had genetically confirmed SCA 3, 1 patient had genetically confirmed SCA 6, 3 patients had sporadic cerebellar ataxia with no family history, and 1 patient had genetically-confirmed FXTAS. Patients were treated for 4 weeks with varenicline, which was discontinued on day 30. They were assessed at baseline and after 4 weeks using the Scale for the Assessment and Rating of Ataxia (SARA) (Schmitz-Hubsch et al, 2006) and the Clinical Global Impression (CGI) scale. Ataxia experts blindly assessed videotapes of the patients. […] In the remaining 5 patients, there was a mean improvement of 2.4 points in gait scores and of 5 points for the total SARA scores with varenicline use.
# [3] = system: ataxia and imbalance in Fragile X-associated Tremor Ataxia syndrome (FXTAS); experiment: Case report: person with FXTAS taking varenicline (Example 1); format: in vivo, human; conditions: for SARA score, functional staging for ataxia / SARA score, gait / SARA score, tandem walking: blinded video rating
# Experimental: The patient was a person with a nine-year history of postural and intention tremor of their arms and a four-year history of gait ataxia. Their symptoms became disabling in the past year with frequent falls despite the intermittent use of a walker. […] A timeline of the patient's clinical course is depicted in FIG. 1. […] One week after taking varenicline, they noted that their walking improved and they no longer needed assistance from a walker to ambulate. […] The patient was evaluated by the University of South Florida (USF) movement disorders center seven weeks after starting varenicline. Vital signs and physical examination were normal. Their neurological examination included a Mini Mental State Exam (MMSE) of 26/30, mild dysarthria, mild voice tremor, severe postural and intention tremor of their arms, mild rigidity, and moderate dysmetria in all extremities. They were able to get out of a chair without assistance, and continued to walk six meters five times (30 meters total) without rest or the assistance of a walker. They were able to tandem walk for two to three steps. The rest of their neurological exam, including cranial nerves, reflexes, motor and sensory examination, was within normal limits. The patient received a score of 5 (out of a maximum possible score=63) on a Beck's Depression Scale (BDI) (2). […] Chest X-ray was clear, with no evidence of neoplasia. The patient stopped varenicline seven weeks after starting it. Within 10 days, they reported a slight worsening of the residual ataxia and imbalance. Within three weeks, they again needed a walker for ambulation and began to fall daily. The patient returned to clinic off varenicline. […] They once again needed assistance to walk and was unable to tandem walk even with assistance. The rest of the neurological examination remained unchanged, including the postural and intention tremor. […] At week 11, the patient re-started varenicline one mg twice daily, and again noted improvement in ataxia within one week. Due to vivid dreams, the varenicline dose was decreased to one mg daily at week 12. The patient has taken varenicline for 22 weeks, with a sustained ataxia improvement. A videotape of the patient was scored by a blinded movement disorders expert using the SARA (Scale for Assessment and Rating of Ataxia) (3). The SARA scores on varenicline one mg b.i.d. were “two” for functional staging for ataxia (ataxic symptoms were present and were recognized by patient, but were still mild), “one” for tandem walking (the patient was able to tandem walk in less than perfect manner or the patient could tandem walk greater than four sequential steps but less than eight steps) and “zero” for gait (normal). The SARA scores after the patient had discontinued varenicline for three weeks included a “three” for functional staging for ataxia (ataxic symptoms considered overt and significant), “three” for tandem walking (the patient was considered too poorly coordinated to attempt the task), and “two” for gait (the patient walked with definite ataxia; may have needed intermittent support for walking or the examiner needed to walk with patient for safety sake).
# [4] = system: cerebellar symptoms of SCA type 3; experiment: Case report: person with SCA type 3 taking varenicline (Example 2, first patient); format: in vivo, human; conditions: for total SARA score: blinded video rating
# Excerpt: The first patient was a person with a 16-year history of imbalance, gait dysfunction, and dysarthria who presented to an academic movement disorders center for management of their symptoms. […] Their medical history included one myocardial infarction 2 years ago, coronary artery disease, hypertension, and hyperlipidemia. […] On examination, the patient's vital signs and physical examination were normal. Their neurologic examination included a Mini-Mental Status Exam (MMSE) of 30/30, mild dysarthria, mild to moderate postural and intention tremor, mild dystonia in their arms, mild akinesia, and moderate dysmetria in all extremities. Fast alternating hand movements were irregular and marked by interruptions, and their heel to shin slide was severely abnormal bilaterally. Their gait was ataxic and […], and they required the constant use of a walker or the support of a cane to ambulate. Their cranial nerves and motor examination were normal, although there was mild decrease in […] sensory examination to light and deep touch in a stocking-glove distribution. There was increased tone and hyperreflexia in their lower extremities. […] After the evaluation, the patient started varenicline 0.5 mg twice daily for smoking cessation. The dose of varenicline was increased to 1 mg twice daily after one week. […] The patient returned to the academic movement disorders center one month after starting varenicline for routine follow-up. […] A videotape of the patient was scored by a blinded movement disorders expert using the SARA (Scale for Assessment and Rating of Ataxia) (1). The total SARA score prior to the patient taking varenicline 1 mg twice daily was 29, while the score one month after starting varenicline was 13.
# [5] = biological target: α4β2 nicotinic acetylcholine receptors (Homo sapiens, UniProt P17787+P43681); conditions: cited from earlier work
# [6] = biological target: α7 nicotinic acetylcholine receptors (Homo sapiens, UniProt P36544); conditions: cited from earlier work
# [7] = in vivo; cited from earlier work
# [8] = of 5 remaining patients, 1 mg twice daily, 4 weeks
# [9] = varenicline discontinued for three weeks
# [10] = varenicline stopped after seven weeks
# [11] = one month after starting varenicline
# [12] = twenty-one days after first taking varenicline
# [13] = 3 weeks after starting varenicline
# Chain of α7 nicotinic acetylcholine receptors (P36544 23-502): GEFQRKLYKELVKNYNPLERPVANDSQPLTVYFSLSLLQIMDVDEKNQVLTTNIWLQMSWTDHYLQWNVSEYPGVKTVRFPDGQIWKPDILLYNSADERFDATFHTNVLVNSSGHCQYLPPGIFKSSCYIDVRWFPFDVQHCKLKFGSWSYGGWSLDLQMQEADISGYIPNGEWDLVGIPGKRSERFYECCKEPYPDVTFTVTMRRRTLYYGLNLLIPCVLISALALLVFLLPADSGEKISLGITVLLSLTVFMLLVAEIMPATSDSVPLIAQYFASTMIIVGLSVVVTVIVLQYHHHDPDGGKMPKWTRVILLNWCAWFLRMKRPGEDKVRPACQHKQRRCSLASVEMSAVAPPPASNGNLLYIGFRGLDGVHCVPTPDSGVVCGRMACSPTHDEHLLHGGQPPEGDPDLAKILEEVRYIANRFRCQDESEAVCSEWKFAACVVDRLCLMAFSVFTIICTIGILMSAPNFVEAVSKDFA
# Chain of α4β2 nicotinic acetylcholine receptors (P43681 29-627 limits assumed): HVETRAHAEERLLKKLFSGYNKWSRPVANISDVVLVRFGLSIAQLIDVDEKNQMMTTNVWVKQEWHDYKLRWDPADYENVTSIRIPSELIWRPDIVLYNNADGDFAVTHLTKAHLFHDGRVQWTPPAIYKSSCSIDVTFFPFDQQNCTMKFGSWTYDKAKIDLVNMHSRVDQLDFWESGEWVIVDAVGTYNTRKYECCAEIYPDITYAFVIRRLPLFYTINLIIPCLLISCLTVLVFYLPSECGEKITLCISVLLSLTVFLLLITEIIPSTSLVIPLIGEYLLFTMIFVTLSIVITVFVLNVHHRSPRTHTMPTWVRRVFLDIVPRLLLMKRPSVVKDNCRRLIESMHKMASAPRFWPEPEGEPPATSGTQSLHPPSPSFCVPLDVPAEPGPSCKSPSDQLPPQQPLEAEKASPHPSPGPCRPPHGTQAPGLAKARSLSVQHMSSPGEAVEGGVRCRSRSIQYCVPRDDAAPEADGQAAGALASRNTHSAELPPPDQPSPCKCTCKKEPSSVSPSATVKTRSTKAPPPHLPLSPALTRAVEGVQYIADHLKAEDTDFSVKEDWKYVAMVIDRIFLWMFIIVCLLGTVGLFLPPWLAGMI
# Chain of α4β2 nicotinic acetylcholine receptors (P17787 26-502): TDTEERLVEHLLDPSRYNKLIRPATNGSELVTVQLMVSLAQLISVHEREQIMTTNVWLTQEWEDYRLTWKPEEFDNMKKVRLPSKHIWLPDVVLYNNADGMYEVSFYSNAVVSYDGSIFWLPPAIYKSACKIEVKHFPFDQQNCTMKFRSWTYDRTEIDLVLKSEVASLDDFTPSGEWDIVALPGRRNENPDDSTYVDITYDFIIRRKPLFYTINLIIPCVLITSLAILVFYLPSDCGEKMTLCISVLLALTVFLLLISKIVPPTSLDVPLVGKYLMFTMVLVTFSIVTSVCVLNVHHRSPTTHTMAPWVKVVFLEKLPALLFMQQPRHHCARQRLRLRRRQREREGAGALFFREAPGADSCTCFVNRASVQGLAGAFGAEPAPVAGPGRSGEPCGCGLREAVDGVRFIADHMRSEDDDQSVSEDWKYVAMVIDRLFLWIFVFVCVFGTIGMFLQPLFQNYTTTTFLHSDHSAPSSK
structure (smiles),measurement,setting,value
CNCCC(Oc1ccc(C(F)(F)F)cc1)c1ccccc1 (stereo not drawn) [fluoxetine],efficacy in ataxia and imbalance,ataxia and imbalance,either conflicting results or limited efficacy
Nc1nnc(-c2cccc(Cl)c2Cl)c(N)n1 [lamotrigine],efficacy in ataxia and imbalance,ataxia and imbalance,either conflicting results or limited efficacy
O=C1Nc2ccc(Cl)cc2C(c2ccccc2Cl)=NC1O (stereo not drawn) [lorazepam],effect of prior medications on cerebellar symptoms,[1],to no avail
Cc1ccc(-c2nc3ccc(C)cn3c2CC(=O)N(C)C)cc1 [zolpidem],effect of prior medications on cerebellar symptoms,[1],to no avail
same,efficacy in ataxia and imbalance,ataxia and imbalance,either conflicting results or limited efficacy
"c1cnc2cc3c(cc2n1)[C@@H]1CNC[C@H]3C1 [varenicline, 7,8,9,10-tetrahydro-6,10-methano-6H-pyrazino (2,3-h)(3) benzazepine]",mean improvement in total SARA scores,"[2]; 5 remaining patients, varenicline 1 mg twice daily, 4 weeks vs baseline",5 points
same,mean improvement in gait scores,"[2]; 5 remaining patients, varenicline 1 mg twice daily, 4 weeks vs baseline, SARA",2.4 points
same,effect on cerebellar symptoms (conclusion),[2]; blinded video analysis of ataxic patients,effectively treat cerebellar symptoms
same,patients with marked improvement in gait as measured by the CGI,[2]; [8],Three
same,patients with moderate improvement in gait as measured by the CGI,[2]; [8],2 patients
same,reason for discontinuation of varenicline,"[2]; two of seven patients (one SCA 6, one sporadic ataxia)",flu-like symptoms and increased tremor
same,reduction of intake of cigarettes,"[2]; two smokers with marked improvement in gait, while taking varenicline",50%
same,ataxia and imbalance after starting varenicline,[3]; FXTAS patient,greatly improved
same,duration of sustained response after open-label resumption,[3]; FXTAS patient,five
same,BDI score off varenicline,[3]; after discontinuation,had not changed
same,neurological examination off varenicline,[3]; after discontinuation,returned to the pre-varenicline state
same,duration of varenicline use with sustained ataxia improvement,[3]; dose decreased to one mg daily at week 12,22 weeks
same,"SARA score, functional staging for ataxia",[3]; on varenicline one mg b.i.d.,two
same,"SARA score, gait",[3]; on varenicline one mg b.i.d.,zero
same,"SARA score, tandem walking",[3]; on varenicline one mg b.i.d.,one
same,onset of vivid dreaming after starting,[3]; one mg twice daily,two
same,side effect,[3]; one mg twice daily,vivid dreaming
same,smoking cessation,[3]; one mg twice daily,helped them quit smoking in a few days
same,time until walking improved and walker no longer needed,[3]; one mg twice daily,One
same,balance,"[3]; one mg twice daily, one week",marked improvement
same,Beck's Depression Scale (BDI) score,"[3]; seven weeks after starting varenicline, maximum possible score 63",5
same,distance walked without rest or assistance of a walker,"[3]; seven weeks after starting varenicline, six meters five times",30 meters
same,"SARA score, functional staging for ataxia",[3]; [9],three
same,"SARA score, gait",[3]; [9],two
same,"SARA score, tandem walking",[3]; [9],three
same,time to slight worsening of residual ataxia and imbalance after stopping,[3]; [10],≤ 10 days
same,time until walker again needed and daily falls after stopping,[3]; [10],three
same,"time to reported improvement in depth perception and easier, more stable walking","[4]; 0.5 mg twice daily, 1 mg twice daily after one week",Ten
same,gait dysfunction and akinesia,[4]; [11],improved markedly
same,"limb dysmetria, fast alternating movements, finger to nose and heel-shin slide",[4]; [11],markedly improved
same,total SARA score,[4]; [11],13
same,total SARA score,[4]; prior to taking varenicline 1 mg twice daily,29
same,balance,[4]; [12],markedly improved
same,distance walked using only a cane rather than a walker,[4]; [12],3 blocks
same,smoking cessation,[4]; while taking varenicline,did not stop smoking cigarettes
same,duration of nausea after taking the medication,"[1]; 0.5 mg once a day, titrating to 1 mg twice daily after 1 week",7 days
same,"speech, dysmetria, finger-to-nose and heel-to-shin maneuvers",[1]; [13],markedly improved
same,total SARA score,[1]; [13],8
same,gait dysfunction,"[1]; 3 weeks after starting varenicline, could walk without assistance",improved markedly
same,neurologic examination after discontinuation,[1]; 4 weeks after discontinuing varenicline,returned to prevarenicline status
same,"time to reported marked improvements in walking, coordination, speech and balance",[1]; after starting varenicline,8 days
same,total SARA score,[1]; before taking 1 mg of varenicline twice daily,22
same,duration on varenicline with continued efficacy,[1]; discontinued owing to financial considerations,8 weeks
same,type of activity at α4β2 nicotinic acetylcholine receptors,[5],highly selective partial agonist
same,type of activity at α7 nicotinic acetylcholine receptors,[6],full agonist
same,adverse effects,[7],"nausea, sleep disturbance, constipation, flatulence, and vomiting"
same,potential risks associated with use,[7],"suicidal behavior, depressed mood, and agitation"
O=C1CN=C(c2ccccc2Cl)c2cc([N+](=O)[O-])ccc2N1 [clonazapem],effect of prior medications on cerebellar symptoms,[1],to no avail
O=C1CC2(CCCC2)CC(=O)N1CCCCN1CCN(c2ncccn2)CC1 [buspirone],efficacy in ataxia and imbalance,ataxia and imbalance,either conflicting results or limited efficacy
